In brackets after ≈: the same amount, converted by molar mass.

The subject of this test is Biomphalaria glabrata. The test is described as follows: Molluscicidal activity against Biomphalaria glabrata after 24 hrs. It counts as functional.
Consider `C/C=C(\C)C(=O)O[C@@H]1C(COC(=O)c2ccccc2NC(=O)c2ccccc2N)=C[C@@H]2C(=O)[C@]3(C=C(C)[C@H](OC(C)=O)[C@@]13O)[C@H](C)C[C@@H]1[C@H]2C1(C)C`, for which the 50% lethal concentration (LC50) worked out at 0.0155 µg/mL (≈ 0.0218 µM).

In turn, `CC(=O)OCC1=C[C@@H]2C(=O)[C@]3(C=C(C)[C@H](OC(=O)c4ccccc4NC(=O)c4ccccc4N)[C@@]3(O)[C@@H]1O)[C@H](C)C[C@@H]1[C@H]2C1(C)C` came in with an LC50 of 0.0143 µg/mL (≈ 0.0227 µM).

On to `C/C=C(\C)C(=O)OCC1=C[C@@H]2C(=O)[C@]3(C=C(C)[C@H](OC(C)=O)[C@@]3(O)[C@@H]1OC(=O)c1ccccc1NC(=O)c1ccccc1N)[C@H](C)C[C@@H]1[C@H]2C1(C)C`, for which the median lethal concentration (LC50) was 0.0145 µg/mL (≈ 0.0204 µM).

Regarding `C/C=C(\C)C(=O)O[C@@H]1C(COC(C)=O)=C[C@@H]2C(=O)[C@]3(C=C(C)[C@H](OC(=O)c4ccccc4NC(=O)c4ccccc4N)[C@@]13O)[C@H](C)C[C@@H]1[C@H]2C1(C)C`, the 50% lethal concentration (LC50) turned out to be 0.0135 µg/mL (≈ 0.019 µM).

Take `C/C=C(\C)C(=O)O[C@H]1C(C)=C[C@]23C(=O)[C@@H](C=C(COC(C)=O)[C@@H](OC(=O)c4ccccc4NC(=O)c4ccccc4N)[C@]12O)[C@H]1[C@@H](C[C@H]3C)C1(C)C`: the 50% lethal concentration (LC50) stood at 0.0754 µg/mL (≈ 0.106 µM). Against the preceding molecule, the LC50 is about 5.6-fold higher.

As for `CC(=O)OCC1=C[C@@H]2C(=O)[C@]3(C=C(C)[C@H](OC(=O)c4ccccc4NC(=O)c4ccccc4N)[C@@]3(O)[C@@H]1OC(C)=O)[C@H](C)C[C@@H]1[C@H]2C1(C)C`, the median lethal concentration (LC50) came to 0.0114 µg/mL (≈ 0.017 µM).

For `CC(=O)O[C@H]1C(C)=C[C@]23C(=O)[C@@H](C=C(COC(=O)c4ccccc4NC(=O)c4ccccc4N)[C@@H](O)[C@]12O)[C@H]1[C@@H](C[C@H]3C)C1(C)C`, the 50% lethal concentration (LC50) was 0.0192 µg/mL (≈ 0.0305 µM).

On to `CC(=O)OCC1=C[C@@H]2C(=O)[C@]3(C=C(C)[C@H](OC(C)=O)[C@@]3(O)[C@@H]1OC(=O)c1ccccc1NC(=O)c1ccccc1N)[C@H](C)C[C@@H]1[C@H]2C1(C)C`, for which the LC50 turned out to be 0.0183 µg/mL (≈ 0.0273 µM).

Consider `C/C=C(\C)C(=O)OCC1=C[C@@H]2C(=O)[C@]3(C=C(C)[C@H](OC(=O)c4ccccc4NC(=O)c4ccccc4N)[C@@]3(O)[C@@H]1OC(C)=O)[C@H](C)C[C@@H]1[C@H]2C1(C)C`, for which the LC50 stood at 0.0125 µg/mL (≈ 0.0176 µM).

Take `C/C=C(\C)C(=O)O[C@H]1C(C)=C[C@]23C(=O)[C@@H](C=C(COC(=O)c4ccccc4NC(=O)c4ccccc4N)[C@@H](OC(C)=O)[C@]12O)[C@H]1[C@@H](C[C@H]3C)C1(C)C`: the LC50 was 0.0615 µg/mL (≈ 0.0865 µM).

Take `O=C(Nc1ccc([N+](=O)[O-])cc1Cl)c1cc(Cl)ccc1O` [NICLOSAMIDE]: the LC50 turned out to be 0.025 µg/mL (≈ 0.0764 µM).

For the origin of these results see ChEMBL document CHEMBL1153013, “Bio-active compounds from Euphorbia cornigera Boiss” (2009).
